# In patent US7977064B2, “Disheveled PDZ modulators” (Genentech, Inc., priority 2006, dated 2011):
# pIC50, pKi: −log10 of the molar value. “Also recorded” adds a separate entry of the source. No end group written: not given here.
# How the values were obtained:
# Dvl2PDZ [1] = biological target: T1, Dvl2PDZ (Homo sapiens, UniProt O14641); test: Fluorescence polarization assay, peptides binding to Dvl2PDZ
# T1 construct: protein fragments spanning amino acids 248-364 of the full-length Dvl2 were produced; made in house; host or cells: E. coli (pGEX system)
# T1 sequence (O14641 248-364): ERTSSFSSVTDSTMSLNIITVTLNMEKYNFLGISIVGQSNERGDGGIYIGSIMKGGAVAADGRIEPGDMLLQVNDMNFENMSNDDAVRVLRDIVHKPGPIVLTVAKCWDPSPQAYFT
# Experimental: The binding affinities of synthetic peptides were also measured by Flourescence polarization assay. Serial dilution of purified Dvl2PDZ domain polypeptide (1-10 μM) was incubated with 10 nM probe peptide (FAM-KWYGWL-COOH) (SEQ ID NO: 169) in PBS, 0.1% Triton X100 as 30 μl volume in 96-well black HE96 plates (LJL Biosystem, Inc, Calif.), and incubated for 15 minutes at room temperature. Polarization measurements were performed in Analyst platereader (LJL Biosystems, Inc., Sunnyvale, Calif.). Ks=536 nM was derived from this assay by non-linear regression fitting with KaleidaGraph™. Competition experiments were performed by addition of serial dilution of the free peptides (0-500 μM) to solution with 10 nM probe and 1 μM Dvl2PDZ. The polarization was measured and IC50 values were derived as described above. Ki values were calculated as described previously.
# Dvl2PDZ [2] = biological target: T1, Dvl2PDZ; test: Competition ELISA, peptides binding to Dvl2PDZ
# Text: Many methods are known and can be used to identify the binding affinities of binding molecules (e.g. peptides, proteins, small molecules, etc.); for example, binding affinities can be determined as IC50 values using competition ELISAs. The IC50 value is defined as the concentration of binder which blocks 50% of Dvl PDZ domain binding to a ligand. For example, in solid phase assays, assay plates may be prepared by coating microwell plates (preferably treated to efficiently adsorb protein) with neutravidin, avidin or streptavidin. […] After further washing, the binding reactions are detected, often with an antibody recognizing the non-PDZ fusion partner and a labeled (such as horseradish peroxidase (HRP), alkaline phosphatase (AP), or a fluorescent tag such as fluorescein) secondary antibody recognizing the primary antibody. The plates are then developed with the appropriate substrate (depending on the label) and the signal quantified, such as using a spectrophotometric plate reader. […] Thus the ability of the various molecules to inhibit PDZ domain from binding a known PDZ domain binder can be measured.
# Affinity assays—The binding affinities of peptides for Dvl2PDZ were determined as IC50 values using a competition ELISA, as previously described. […]
# [3] = system: Wnt3a-stimulated β-catenin signaling in HEK293S cells; test: TOPGLOW luciferase reporter assay in HEK293S cells; assay type: cell-based; conditions: for Effect on Wnt3a-stimulated transcriptional activity (TopGlow): peptide up to 20 μM in medium
# Experimental: HEK293S cells were transfected with the reporter plasmid pTOPGLOW combined with pRL reporter. Cell extract was prepared and the luciferase activity was measured. The relative luciferase unit (RLU) is TopGlow luciferase activity divided by Renila luciferase activity. The fold of activation is the RLU ratio between the Wnt3a-stimulated and non-stimulated cells. Cells were treated with either 10 μM (light bar) or 20 μM (dark bar) peptide ligands.
# (§1) Cell culture, transfection and peptide treatment: HEK293 and H1703 were propagated according to the instructions from American Type Culture Collection. HEK293 cells were transfected with FuGene6 according to the manufacturer's instructions (Roche Molecular Biochemicals) at cell confluence of 50%. H1703 cells were transfected with Lipofectamine according to manufacturer's instruction at cell confluence of 80%. Cells were treated with medium containing peptide (5 μM-40 μM) 24 hours after transfection, and were routinely harvested 24 hours after the peptide treatment for additional assays.
# TOPGLOW assay: Cells were plated in 12-well plates. The TOPGLOW reporter plasmid was transfected transiently into cells as described above. TCF-mediated gene transcription was determined by pTOPGLOW luciferase activity, which was normalized to relative luciferase activities of pRL reporter (cotransfected internal control). All experiments were performed duplicated.
# [4] = system: β-catenin protein level in HEK293S cells; test: Western blot of β-catenin protein level in HEK293S cells; assay type: cell-based; conditions: 20 μM peptide, 24 hours, compared to DMSO and PEN
# Experimental: HEK293S cells were treated with 20 μM DVLp and PEN for 24 hours. Cell lysate was prepared and subjected to SDS-PAGE. β-catenin was blotted by poly-clonal anti-β-catenin (Genentech, Inc., South San Francisco).
# as §1
# Western Blot: Harvested cells were lysed with SIC lysis buffer, the supernatant was subjected to SDS-PAGE, which was transferred, blocked and blotted with proper primary antibody by a standard western blot protocol. Fluorescence labeled secondary antibodies (Alexa goat anti-mouse or anti-rabbit) were added and the results were analyzed by Li-core™.
substance,measurement,setting,value
"Ac-GEIVLWSDIPG-NH2 [Peptide N3, G E I V L W S D I P G]",Affinity lower than that of D1,Dvl2PDZ [1]; ratio of Ki values,6 fold
"Ac-KGFGML-OH [Peptide D5, K G F G M L]",pIC50,Dvl2PDZ [2],3.62
"Ac-KWYGWF [Peptide D2, K W Y G W F]",pIC50,Dvl2PDZ [2],6.03
"Ac-KWYGWL-OH [Peptide D1, K W Y G W L]",pKi,"Dvl2PDZ [1]; competition with 10 nM FAM-KWYGWL-COOH probe, 1 μM Dvl2PDZ, read-out: Ki measured by Flourescence polarization assay",6.14
Ac-RQTKIVWFQNRRMKKGEIVLWSDIPG [DVLp_N3],Effect on Wnt3a-stimulated transcriptional activity (TopGlow),[3]; HEK293S cells,inhibited Wnt3a-stimulated transcriptional activity significantly; also recorded: blocked the Wnt-stimulated β-catenin signaling
same,Effect on Wnt3a-stimulated transcriptional activity (TopGlow),"[3]; HEK293S cells, listed as Dvlp_N3",significantly blocked the Wnt-stimulated increase in β-catenin signaling
same,Dose dependence of inhibition of Wnt-stimulated β-catenin signaling,"[3]; HEK293S cells, two independent experiments",dose-dependent
same,Inhibition of Wnt3a-stimulated transcriptional activity,"[3]; HEK293 cells, peptide 5-20 μM",up to 80%
same,β-catenin level in whole cell lysate upon Wnt3a stimulation,[4],significantly lower β-catenin levels
same,β-catenin level in whole cell lysate upon Wnt3a stimulation,[4]; listed as Dvlp_N3,reduced the Wnt-stimulated increase in β-catenin protein level
"Ac-RQTKIWFQNRRMKWKK [PEN, reference compound]",Effect on Wnt3a-stimulated transcriptional activity (TopGlow),[3]; HEK293S cells,did not show an inhibition effect
